pIC50: −log10 of the molar value. Where two headings read alike, the source gives them in different places.

Common to all, as to format: biochemical
For one experiment, the target named is T1, PHF8 (KDM7) (Homo sapiens, UniProt Q9UPP1).
T1 construct: KDM7 (PHF8); BRIC; 1-1322; Bac
In words: Histone lysine demethylase AlphaLISA assay, PHF8. On the procedure: (§1) The compounds of the application, or a pharmaceutically acceptable salt, or solvate, or prodrug thereof, are tested in an in vitro AlphaLISA assay. Enzymes are dissolved in enzyme buffer and incubated before they are added to DMSO solutions of compounds of the application, or a pharmaceutically acceptable salt, or solvate, or prodrug thereof, in enzyme buffer. The reaction mixture is then incubated for an additional period of time before substrate solution is added and then the resulting mixture again incubated. Acceptor beads and suspended Epigenetic Buffer from stock are added and the suspension is again incubated before a suspension of streptavidin donor beads in Epigenetic Buffer is added. After an additional period of incubation, the plates are read.
(§2) The ability of compounds of the application to inhibit the histone lysine demethylase activity in vitro of different enzymes was determined.
(§3) The reaction mixture was incubated for another 10 minutes before 5 μL of substrate solution was added and the resulting mixture was then incubated at room temperature. […] After incubation at room temperature in the dark, the plates were read.
(§4) Enzyme Buffer: 50 mM Hepes (pH 7.4-8.0), 0.003-0.01% Tween-20, 0.1% BSA; 5 μM (NH4)2Fe(SO4)2.
For orientation: In Alpha technology, singlet oxygen from a donor bead excites a nearby acceptor bead.

For another experiment, the target named is T2, KDM2B (FBXL10) (Homo sapiens, UniProt Q8NHM5).
T2 construct: KDM2B; BPS,; 1-650; Bac; purchased BPS Bioscience, US; host or cells: baculovirus system
T2 sequence (Q8NHM5 1-650): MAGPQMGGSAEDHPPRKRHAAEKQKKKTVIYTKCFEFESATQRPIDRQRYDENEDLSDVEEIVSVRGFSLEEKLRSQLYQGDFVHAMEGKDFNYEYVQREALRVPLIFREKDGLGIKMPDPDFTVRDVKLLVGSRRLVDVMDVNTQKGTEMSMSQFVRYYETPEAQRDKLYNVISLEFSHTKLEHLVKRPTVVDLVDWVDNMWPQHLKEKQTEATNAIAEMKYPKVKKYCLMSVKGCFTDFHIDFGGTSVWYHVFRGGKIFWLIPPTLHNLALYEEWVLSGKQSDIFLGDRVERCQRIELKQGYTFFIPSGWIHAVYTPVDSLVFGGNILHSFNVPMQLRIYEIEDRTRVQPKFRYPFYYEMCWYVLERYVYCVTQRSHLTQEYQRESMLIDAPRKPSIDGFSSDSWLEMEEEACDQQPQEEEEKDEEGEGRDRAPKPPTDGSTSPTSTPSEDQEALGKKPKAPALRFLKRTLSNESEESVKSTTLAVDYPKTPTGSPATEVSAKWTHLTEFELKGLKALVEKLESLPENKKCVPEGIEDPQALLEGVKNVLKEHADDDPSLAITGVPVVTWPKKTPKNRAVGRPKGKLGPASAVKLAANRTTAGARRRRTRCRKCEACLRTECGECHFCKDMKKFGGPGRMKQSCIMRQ
Put plainly: Histone lysine demethylase AlphaLISA assay, KDM2B. On the procedure:
as §1, §2, §3, §4

The target of another experiment is T3, KDM4C (JMJD2C) (Homo sapiens, UniProt Q9H3R0).
T3 construct: KDM4C; BRIC, Denmark; 1-349; E. coli; host or cells: E. coli
T3 sequence (Q9H3R0 1-349): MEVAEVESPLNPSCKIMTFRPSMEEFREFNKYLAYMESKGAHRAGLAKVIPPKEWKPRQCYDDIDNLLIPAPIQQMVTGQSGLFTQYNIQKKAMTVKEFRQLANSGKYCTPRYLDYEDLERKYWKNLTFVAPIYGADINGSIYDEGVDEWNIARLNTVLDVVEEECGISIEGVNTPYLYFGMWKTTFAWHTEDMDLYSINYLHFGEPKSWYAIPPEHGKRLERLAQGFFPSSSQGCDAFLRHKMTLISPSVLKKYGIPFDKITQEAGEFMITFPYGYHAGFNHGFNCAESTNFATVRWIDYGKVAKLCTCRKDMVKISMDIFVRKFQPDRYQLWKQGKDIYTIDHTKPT
Put plainly: Histone lysine demethylase AlphaLISA assay, KDM4C. As to the method:
as §1, §2, §3, §4

Another experiment addresses T4, KDM5B (PLU-1) (Homo sapiens, UniProt Q9UGL1).
T4 construct: BRIC; 1-809; E. coli; host or cells: E. coli
T4 sequence (Q9UGL1 1-809): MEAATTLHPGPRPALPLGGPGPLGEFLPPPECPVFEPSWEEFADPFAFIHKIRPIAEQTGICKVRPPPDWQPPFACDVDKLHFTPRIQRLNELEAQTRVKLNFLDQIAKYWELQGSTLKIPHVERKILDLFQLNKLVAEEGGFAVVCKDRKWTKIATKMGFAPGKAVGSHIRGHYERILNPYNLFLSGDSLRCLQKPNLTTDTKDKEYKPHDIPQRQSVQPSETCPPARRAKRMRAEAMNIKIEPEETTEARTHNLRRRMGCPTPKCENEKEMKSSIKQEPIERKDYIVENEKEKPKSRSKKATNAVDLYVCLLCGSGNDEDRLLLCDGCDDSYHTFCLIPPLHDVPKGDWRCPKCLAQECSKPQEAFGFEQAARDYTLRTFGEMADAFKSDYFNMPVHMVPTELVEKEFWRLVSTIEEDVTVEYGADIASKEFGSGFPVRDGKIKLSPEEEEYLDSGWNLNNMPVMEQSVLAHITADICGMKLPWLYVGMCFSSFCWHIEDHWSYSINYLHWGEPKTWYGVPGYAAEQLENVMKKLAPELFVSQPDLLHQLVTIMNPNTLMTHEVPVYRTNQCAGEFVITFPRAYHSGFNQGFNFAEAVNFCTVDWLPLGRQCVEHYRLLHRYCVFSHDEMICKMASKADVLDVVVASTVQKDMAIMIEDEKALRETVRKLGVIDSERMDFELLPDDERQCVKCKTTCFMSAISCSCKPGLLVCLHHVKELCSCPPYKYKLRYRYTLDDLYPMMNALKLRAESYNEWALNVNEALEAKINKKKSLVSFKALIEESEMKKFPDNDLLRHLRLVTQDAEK
Put plainly: Histone lysine demethylase AlphaLISA assay, KDM5B. On the procedure:
as §1, §2, §3, §4

Setting [1] is: AlphaLISA, in vitro, read-out: HDME Inhibition PHF8.
The mark [2] stands for this setting: AlphaLISA, in vitro, read-out: HDME Inhibition KDM2B.
Setting [3] is: AlphaLISA assay, read-out: HDME Inhibition KDM4C (IC50).
The mark [4] stands for this setting: AlphaLISA, in vitro, read-out: HDME Inhibition KDM4C.
[5] abbreviates: AlphaLISA assay, read-out: HDME Inhibition KDM5B (IC50).
[6] abbreviates: AlphaLISA, in vitro, read-out: HDME Inhibition KDM5B.
The mark [7] stands for this setting: AlphaLISA assay, read-out: HDME Inhibition PHF8 (IC50).

T1 sequence (Q9UPP1 37-440 limits assumed): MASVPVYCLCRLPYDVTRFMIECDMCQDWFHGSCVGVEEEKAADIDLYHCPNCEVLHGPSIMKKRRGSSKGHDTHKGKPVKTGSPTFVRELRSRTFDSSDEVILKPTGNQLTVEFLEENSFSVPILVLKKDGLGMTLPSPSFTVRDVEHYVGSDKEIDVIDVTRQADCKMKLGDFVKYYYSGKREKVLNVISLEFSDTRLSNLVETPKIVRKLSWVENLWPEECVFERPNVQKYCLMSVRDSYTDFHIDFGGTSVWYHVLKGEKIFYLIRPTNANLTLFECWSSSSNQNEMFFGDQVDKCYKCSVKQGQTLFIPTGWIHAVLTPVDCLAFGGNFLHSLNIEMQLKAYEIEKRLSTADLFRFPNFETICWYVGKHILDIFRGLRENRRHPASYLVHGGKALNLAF

For the compound `Cc1cc(C(=O)O)cc(CNCc2ncc(CN(C)C)n2Cc2ccc(F)cc2)n1` [Compound 50, 2-{[({5-[(dimethylamino)methyl]-1-[(4-fluorophenyl)methyl]-1H-imidazol-2-yl}methyl)amino]methyl}-6-methylpyridine-4-carboxylic acid], the pIC50 at PHF8 (KDM7) (setting [1]) was 5.98; at KDM2B (FBXL10) (setting [2]), 6.16; on KDM4C (JMJD2C) (setting [3]), below 5.00; at KDM4C (JMJD2C) (setting [4]) it was below 5.00; on KDM5B (PLU-1) (setting [5]) it was below 5.00; at KDM5B (PLU-1) (setting [6]) it was below 5.00.

Turning to `CCc1cnc(CNCc2cc(C(=O)O)cc(C)n2)n1CCc1ccccc1` [Compound 54, 2-[({[5-ethyl-1-(2-phenylethyl)-1H-imidazol-2-yl]methyl}amino)methyl]-6-methylpyridine-4-carboxylic acid], the pIC50 on PHF8 (KDM7) (setting [1]) was 5.93; on KDM2B (FBXL10) (setting [2]), 5.94; at KDM4C (JMJD2C) (setting [3]), below 5.00; on KDM4C (JMJD2C) (setting [4]) it was below 5.00; at KDM5B (PLU-1) (setting [5]) it was below 5.00; at KDM5B (PLU-1) (setting [6]) it was below 5.00.

For `Cc1cc(C(=O)O)cc(CNCc2nccn2Cc2cccc(C#N)c2)n1` [Compound 47, 2-{[({1-[(3-cyanophenyl)methyl]-1H-imidazol-2-yl}methyl)amino]methyl}-6-methylpyridine-4-carboxylic acid], the pIC50 was 6.41 on PHF8 (KDM7) (setting [1]); 5.90 on KDM2B (FBXL10) (setting [2]); below 5.00 at KDM4C (JMJD2C) (setting [3]); below 5.00 on KDM4C (JMJD2C) (setting [4]); 5.39 on KDM5B (PLU-1).

On to `Cc1cc(C(=O)O)cc(CNCc2nncn2C/C=C/c2ccccc2)n1` [Compound 67, 2-methyl-6-{[({4-[(2E)-3-phenylprop-2-en-1-yl]-4H-1,2,4-triazol-3-yl}methyl)amino]methyl}pyridine-4-carboxylic acid], for which the pIC50 was 6.10 on PHF8 (KDM7) (setting [1]); 6.15 on KDM2B (FBXL10) (setting [2]); below 5.00 at KDM4C (JMJD2C) (setting [3]); below 5.00 at KDM4C (JMJD2C) (setting [4]); below 5.00 at KDM5B (PLU-1) (setting [5]); below 5.00 on KDM5B (PLU-1) (setting [6]).

On to `CCc1cnc(CNCc2cc(C(=O)O)cc(C)n2)n1CCCc1ccccc1` [Compound 108, 2-[({[5-ethyl-1-(3-phenylpropyl)-1H-imidazol-2-yl]methyl}amino)methyl]-6-methylpyridine-4-carboxylic acid], for which the pIC50 at PHF8 (KDM7) (setting [1]) was 6.06; at KDM2B (FBXL10) (setting [2]), 6.88; at KDM4C (JMJD2C) (setting [3]), below 5.00; on KDM4C (JMJD2C) (setting [4]) it was below 5.00; at KDM5B (PLU-1) (setting [5]) it was below 5.00; on KDM5B (PLU-1) (setting [6]), below 5.00.

On to `CCc1cnc(CNCc2cc(C(=O)O)cc(C)n2)n1Cc1cccs1` [Compound 115, 2-[({[5-ethyl-1-(thiophen-2-ylmethyl)-1H-imidazol-2-yl]methyl}amino)methyl]-6-methylpyridine-4-carboxylic acid], for which the pIC50 at PHF8 (KDM7) (setting [1]) is 6.30; at KDM2B (FBXL10) (setting [2]), 7.28; at KDM4C (JMJD2C) (setting [3]), below 5.00; at KDM4C (JMJD2C) (setting [4]) it was below 5.00; on KDM5B (PLU-1) (setting [5]), below 5.00; at KDM5B (PLU-1) (setting [6]), below 5.00.

In the case of `NCc1cc(C(=O)O)cc(CN)n1` [Compound 110, 2,6-bis(aminomethyl)pyridine-4-carboxylic acid], the pIC50 on PHF8 (KDM7) (setting [7]) was below 5.00; at PHF8 (KDM7) (setting [1]) it was below 5.00; on KDM2B (FBXL10) (AlphaLISA assay, read-out: HDME Inhibition KDM2B (IC50)) it was below 5.00; at KDM2B (FBXL10) (setting [2]) it was below 5.00; on KDM4C (JMJD2C) (setting [3]) it was below 5.00; on KDM4C (JMJD2C) (setting [4]), below 5.00. Besides, the pIC50 on KDM5B (PLU-1) (setting [5]) and on KDM5B (PLU-1) (setting [6]) was below 5.00 in each case.

On to `Cc1cc(C(=O)O)cc(CNCc2nccn2CCc2ccccc2)n1` [Compound 61, 2-methyl-6-[({[1-(2-phenylethyl)-1H-imidazol-2-yl]methyl}amino)methyl]pyridine-4-carboxylic acid], for which the pIC50 on PHF8 (KDM7) (setting [1]) was 5.59; on KDM2B (FBXL10) (setting [2]), 5.38; on KDM4C (JMJD2C) (setting [3]) it was below 5.00; at KDM4C (JMJD2C) (setting [4]), below 5.00; at KDM5B (PLU-1) (setting [5]) it was below 5.00; at KDM5B (PLU-1) (setting [6]), below 5.00.

Consider `CCc1nnc(CNCc2cc(C(=O)O)cc(C)n2)n1CCCc1ccccc1` [Compound 90, 2-[({[5-ethyl-4-(3-phenylpropyl)-4H-1,2,4-triazol-3-yl]methyl}amino)methyl]-6-methylpyridine-4-carboxylic acid], for which the pIC50 is 5.16 on PHF8 (KDM7) (setting [1]); 5.53 at KDM2B (FBXL10) (setting [2]); below 5.00 at KDM4C (JMJD2C) (setting [3]); below 5.00 on KDM4C (JMJD2C) (setting [4]); below 5.00 on KDM5B (PLU-1) (setting [5]); below 5.00 on KDM5B (PLU-1) (setting [6]).

As to `Cc1cc(C(=O)O)cc(CNCc2nncn2CCc2cc(Cl)cc(Cl)c2)n1` [Compound 51, 2-{[({4-[2-(3,5-dichlorophenyl)ethyl]-4H-1,2,4-triazol-3-yl}methyl)amino]methyl}-6-methylpyridine-4-carboxylic acid], the pIC50 on PHF8 (KDM7) (setting [1]) was 5.41; on KDM2B (FBXL10) (setting [2]), 5.55; at KDM4C (JMJD2C) (setting [3]) it was below 5.00; at KDM4C (JMJD2C) (setting [4]), below 5.00; on KDM5B (PLU-1) (setting [5]), below 5.00; on KDM5B (PLU-1) (setting [6]) it was below 5.00.

For `CCc1cnc(CNCc2cc(C(=O)O)cc(C)n2)n1CCCC(C)C` [Compound 91, 2-[({[5-ethyl-1-(4-methylpentyl)-1H-imidazol-2-yl]methyl}amino)methyl]-6-methylpyridine-4-carboxylic acid], the pIC50 at PHF8 (KDM7) (setting [1]) was 5.95; on KDM2B (FBXL10) (setting [2]) it was 6.48; at KDM4C (JMJD2C) (setting [3]) it was below 5.00; at KDM4C (JMJD2C) (setting [4]), below 5.00; on KDM5B (PLU-1) (setting [5]) it was below 5.00; at KDM5B (PLU-1) (setting [6]), below 5.00.

Take `CC(C)Cc1ccc(OCc2ccccc2)nc1CNCc1cc(C(=O)O)cc(CO)n1` [Compound 97, 2-[({[6-(benzyloxy)-3-(2-methylpropyl)pyridin-2-yl]methyl}amino)methyl]-6-(hydroxymethyl)pyridine-4-carboxylic acid]: the pIC50 is below 5.00 on PHF8 (KDM7) (setting [7]); below 5.00 at PHF8 (KDM7) (setting [1]); 6.51 at KDM2B (FBXL10) (setting [2]); below 5.00 at KDM4C (JMJD2C) (setting [3]); below 5.00 on KDM4C (JMJD2C) (setting [4]); below 5.00 on KDM5B (PLU-1) (setting [5]). Also, the pIC50 on KDM5B (PLU-1) (setting [6]) was below 5.00.
